{"source": "ChEMBL document CHEMBL5715954", "about": "“Silencing c-Myc translation as a therapeutic strategy through targeting PI3Kδ and CK1ε in hematological malignancies” (Blood, 2017)", "parameters_in_all_cases": "scale not given: the % may be the effect or the level left", "key": {"[1]": {"target": "Epithelial discoidin domain-containing receptor 1 (Homo sapiens) (UniProt Q08345)", "sequence (Q08345 whole entry, the tested form may be a part)": "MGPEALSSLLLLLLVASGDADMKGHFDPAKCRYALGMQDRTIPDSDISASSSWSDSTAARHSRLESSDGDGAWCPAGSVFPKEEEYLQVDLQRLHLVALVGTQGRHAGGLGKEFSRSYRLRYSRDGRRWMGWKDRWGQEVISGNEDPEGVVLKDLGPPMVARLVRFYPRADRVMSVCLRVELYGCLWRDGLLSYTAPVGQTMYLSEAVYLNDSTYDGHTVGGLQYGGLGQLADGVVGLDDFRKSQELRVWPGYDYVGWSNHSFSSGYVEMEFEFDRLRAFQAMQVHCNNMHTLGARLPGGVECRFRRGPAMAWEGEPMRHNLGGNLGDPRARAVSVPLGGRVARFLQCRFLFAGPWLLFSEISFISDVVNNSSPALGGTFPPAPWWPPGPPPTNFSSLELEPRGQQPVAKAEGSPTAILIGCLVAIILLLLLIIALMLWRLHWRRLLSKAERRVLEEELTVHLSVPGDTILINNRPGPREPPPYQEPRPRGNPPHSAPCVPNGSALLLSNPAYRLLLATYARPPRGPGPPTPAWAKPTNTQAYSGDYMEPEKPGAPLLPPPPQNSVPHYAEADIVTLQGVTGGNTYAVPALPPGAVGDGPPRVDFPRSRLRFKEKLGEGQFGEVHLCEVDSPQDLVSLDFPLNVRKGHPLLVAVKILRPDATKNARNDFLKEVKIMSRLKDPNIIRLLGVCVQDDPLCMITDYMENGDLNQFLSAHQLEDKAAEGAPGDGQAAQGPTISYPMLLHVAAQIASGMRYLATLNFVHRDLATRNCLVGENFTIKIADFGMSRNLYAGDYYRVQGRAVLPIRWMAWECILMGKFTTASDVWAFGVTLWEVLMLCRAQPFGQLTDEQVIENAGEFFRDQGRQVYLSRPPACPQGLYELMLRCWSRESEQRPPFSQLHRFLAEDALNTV", "assay": "Inhibition of human DDR1 assessed as enzyme activity at 1 uM using KKSRGDYMTMQIG as substrate preincubated for 20 mins followed by [gamma-33P]-ATP addition and measured after 120 mins by radiometric Hot-SpotSM Kinase assay relative to control"}, "[2]": {"target": "Dual specificity tyrosine-phosphorylation-regulated kinase 1B (Homo sapiens) (UniProt Q9Y463)", "sequence (Q9Y463 whole entry, looked up)": "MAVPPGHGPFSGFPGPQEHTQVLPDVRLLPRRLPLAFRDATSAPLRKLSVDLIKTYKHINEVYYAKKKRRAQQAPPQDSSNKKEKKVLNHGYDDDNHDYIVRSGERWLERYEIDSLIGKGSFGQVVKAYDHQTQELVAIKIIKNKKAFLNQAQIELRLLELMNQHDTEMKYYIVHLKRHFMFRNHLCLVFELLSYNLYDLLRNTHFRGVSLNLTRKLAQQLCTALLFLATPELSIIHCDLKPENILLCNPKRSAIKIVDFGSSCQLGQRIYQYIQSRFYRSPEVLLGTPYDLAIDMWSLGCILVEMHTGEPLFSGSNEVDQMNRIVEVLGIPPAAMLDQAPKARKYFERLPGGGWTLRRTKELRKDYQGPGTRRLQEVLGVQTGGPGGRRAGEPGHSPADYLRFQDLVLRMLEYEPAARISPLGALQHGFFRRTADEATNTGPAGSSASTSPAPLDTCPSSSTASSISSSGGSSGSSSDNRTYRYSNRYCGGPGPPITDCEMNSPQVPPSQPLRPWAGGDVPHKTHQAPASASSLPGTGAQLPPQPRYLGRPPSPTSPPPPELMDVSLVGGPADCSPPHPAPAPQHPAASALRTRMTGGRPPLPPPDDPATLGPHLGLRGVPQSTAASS", "assay": "Inhibition of human DYRK1B assessed as enzyme activity at 1 uM using RRRFRPASPLRGPPK as substrate preincubated for 20 mins followed by [gamma-33P]-ATP addition and measured after 120 mins by radiometric Hot-SpotSM Kinase assay relative to control"}, "[3]": {"target": "Mitogen-activated protein kinase kinase kinase kinase 4 (Homo sapiens) (UniProt O95819)", "sequence (O95819 2-1239 limits assumed)": "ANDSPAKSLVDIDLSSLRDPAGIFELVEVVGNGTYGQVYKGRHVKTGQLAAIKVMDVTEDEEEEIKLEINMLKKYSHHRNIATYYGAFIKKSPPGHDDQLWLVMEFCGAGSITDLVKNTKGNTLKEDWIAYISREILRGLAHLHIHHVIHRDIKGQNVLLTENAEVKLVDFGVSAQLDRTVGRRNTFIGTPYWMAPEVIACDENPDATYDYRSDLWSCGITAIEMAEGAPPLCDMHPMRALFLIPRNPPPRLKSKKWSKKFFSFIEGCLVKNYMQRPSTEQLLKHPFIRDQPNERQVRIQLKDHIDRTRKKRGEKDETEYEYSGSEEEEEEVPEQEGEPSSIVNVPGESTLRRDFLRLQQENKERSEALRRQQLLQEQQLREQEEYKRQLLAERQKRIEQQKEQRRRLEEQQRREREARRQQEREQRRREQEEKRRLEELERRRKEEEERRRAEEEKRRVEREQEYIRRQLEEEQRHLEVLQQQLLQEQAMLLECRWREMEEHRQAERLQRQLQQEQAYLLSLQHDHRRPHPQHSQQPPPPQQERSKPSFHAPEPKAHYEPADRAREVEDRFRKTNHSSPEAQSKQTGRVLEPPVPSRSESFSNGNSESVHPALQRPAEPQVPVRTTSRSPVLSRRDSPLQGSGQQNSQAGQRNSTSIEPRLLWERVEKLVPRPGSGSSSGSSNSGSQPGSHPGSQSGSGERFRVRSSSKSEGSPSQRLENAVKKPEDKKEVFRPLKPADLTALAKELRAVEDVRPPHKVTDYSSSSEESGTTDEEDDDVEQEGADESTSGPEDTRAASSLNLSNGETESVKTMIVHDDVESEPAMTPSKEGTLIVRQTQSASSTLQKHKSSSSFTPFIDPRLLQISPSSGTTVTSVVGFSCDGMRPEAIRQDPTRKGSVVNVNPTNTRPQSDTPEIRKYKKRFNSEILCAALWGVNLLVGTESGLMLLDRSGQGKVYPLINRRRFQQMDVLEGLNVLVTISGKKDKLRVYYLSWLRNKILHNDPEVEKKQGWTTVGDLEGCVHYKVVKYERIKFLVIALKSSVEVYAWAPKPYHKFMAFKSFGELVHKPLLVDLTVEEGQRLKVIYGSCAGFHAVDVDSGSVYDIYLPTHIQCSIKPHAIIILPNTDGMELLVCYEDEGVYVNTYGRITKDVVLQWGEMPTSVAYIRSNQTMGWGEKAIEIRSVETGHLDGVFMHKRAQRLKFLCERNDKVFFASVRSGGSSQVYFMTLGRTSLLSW", "assay": "Inhibition of human HGK assessed as enzyme activity at 1 uM using myelin basic protein as substrate preincubated for 20 mins followed by [gamma-33P]-ATP addition and measured after 120 mins by radiometric Hot-SpotSM Kinase assay relative to control"}, "[4]": {"target": "T1, Activin receptor type-1 (Homo sapiens) (UniProt Q04771)", "T1 sequence (whole entry)": "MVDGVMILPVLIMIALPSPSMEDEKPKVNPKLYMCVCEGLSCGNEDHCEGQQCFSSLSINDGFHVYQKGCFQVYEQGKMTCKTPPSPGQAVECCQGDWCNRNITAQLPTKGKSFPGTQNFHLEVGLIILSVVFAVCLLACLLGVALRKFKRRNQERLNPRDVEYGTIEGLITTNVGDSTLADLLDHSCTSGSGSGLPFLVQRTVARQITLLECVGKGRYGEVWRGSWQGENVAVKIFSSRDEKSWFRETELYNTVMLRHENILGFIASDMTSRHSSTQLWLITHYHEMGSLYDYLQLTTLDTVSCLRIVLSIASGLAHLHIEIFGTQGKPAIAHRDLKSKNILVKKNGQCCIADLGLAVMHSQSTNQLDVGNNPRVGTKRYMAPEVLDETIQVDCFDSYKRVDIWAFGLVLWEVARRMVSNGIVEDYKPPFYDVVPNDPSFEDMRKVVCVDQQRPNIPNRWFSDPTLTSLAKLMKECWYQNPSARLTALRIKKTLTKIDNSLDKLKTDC", "assay": "Inhibition of human ALK2 assessed as enzyme activity at 1 uM using casein as substrate preincubated for 20 mins followed by [gamma-33P]-ATP addition and measured after 120 mins by radiometric Hot-SpotSM Kinase assay relative to control"}, "[5]": {"target": "Serine/threonine-protein kinase PLK2 (Homo sapiens) (UniProt Q9NYY3)", "sequence (Q9NYY3 whole entry, looked up)": "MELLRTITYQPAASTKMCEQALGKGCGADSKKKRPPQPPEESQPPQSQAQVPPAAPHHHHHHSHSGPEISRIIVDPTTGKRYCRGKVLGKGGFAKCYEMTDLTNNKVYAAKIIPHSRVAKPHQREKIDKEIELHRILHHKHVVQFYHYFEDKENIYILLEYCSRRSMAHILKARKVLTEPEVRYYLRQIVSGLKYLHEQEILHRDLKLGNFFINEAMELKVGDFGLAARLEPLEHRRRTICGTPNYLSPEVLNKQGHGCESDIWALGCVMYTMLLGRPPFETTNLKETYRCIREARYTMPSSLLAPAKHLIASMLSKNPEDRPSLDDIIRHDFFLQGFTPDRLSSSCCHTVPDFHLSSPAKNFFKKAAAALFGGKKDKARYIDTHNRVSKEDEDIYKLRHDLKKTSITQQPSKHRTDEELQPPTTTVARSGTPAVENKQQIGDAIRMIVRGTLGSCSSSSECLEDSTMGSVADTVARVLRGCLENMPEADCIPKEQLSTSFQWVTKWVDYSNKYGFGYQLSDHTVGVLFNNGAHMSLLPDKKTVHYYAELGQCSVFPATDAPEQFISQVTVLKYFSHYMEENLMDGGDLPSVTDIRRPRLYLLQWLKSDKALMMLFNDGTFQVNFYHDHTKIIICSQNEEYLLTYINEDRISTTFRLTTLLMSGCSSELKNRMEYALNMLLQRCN", "assay": "Inhibition of human PLK2 assessed as enzyme activity at 1 uM using casein as substrate preincubated for 20 mins followed by [gamma-33P]-ATP addition and measured after 120 mins by radiometric Hot-SpotSM Kinase assay relative to control"}, "[6]": {"target": "T2, Ephrin type-A receptor 3 (Homo sapiens) (UniProt P29320)", "T2 sequence (whole entry)": "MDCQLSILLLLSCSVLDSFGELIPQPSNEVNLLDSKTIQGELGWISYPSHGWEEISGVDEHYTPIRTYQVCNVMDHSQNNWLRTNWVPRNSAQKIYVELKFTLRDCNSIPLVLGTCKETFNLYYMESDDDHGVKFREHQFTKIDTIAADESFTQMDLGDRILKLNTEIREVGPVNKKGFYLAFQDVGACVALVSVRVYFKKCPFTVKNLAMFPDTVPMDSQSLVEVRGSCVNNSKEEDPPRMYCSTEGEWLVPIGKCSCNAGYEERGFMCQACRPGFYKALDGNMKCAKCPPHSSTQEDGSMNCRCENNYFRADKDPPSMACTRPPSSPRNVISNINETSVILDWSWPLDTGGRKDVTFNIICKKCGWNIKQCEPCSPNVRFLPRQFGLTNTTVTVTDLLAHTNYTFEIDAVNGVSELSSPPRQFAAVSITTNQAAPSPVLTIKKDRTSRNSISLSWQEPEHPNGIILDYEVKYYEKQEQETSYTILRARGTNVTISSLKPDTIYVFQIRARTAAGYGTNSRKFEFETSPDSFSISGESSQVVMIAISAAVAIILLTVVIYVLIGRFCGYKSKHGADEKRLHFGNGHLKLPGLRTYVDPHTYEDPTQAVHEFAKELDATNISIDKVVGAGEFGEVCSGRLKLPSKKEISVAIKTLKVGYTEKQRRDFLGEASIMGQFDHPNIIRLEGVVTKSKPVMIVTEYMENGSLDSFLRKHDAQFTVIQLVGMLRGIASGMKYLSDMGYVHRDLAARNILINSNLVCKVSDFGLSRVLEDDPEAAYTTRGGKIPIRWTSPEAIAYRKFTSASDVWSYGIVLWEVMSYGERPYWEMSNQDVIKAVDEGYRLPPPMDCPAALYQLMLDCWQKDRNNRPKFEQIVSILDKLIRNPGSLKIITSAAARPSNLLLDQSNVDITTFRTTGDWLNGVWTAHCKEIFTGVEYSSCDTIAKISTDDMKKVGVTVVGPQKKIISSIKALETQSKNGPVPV", "assay": "Inhibition of human EPHA3 assessed as enzyme activity at 1 uM using poly[Glu:Tyr] (4:1) as substrate preincubated for 20 mins followed by [gamma-33P]-ATP addition and measured after 120 mins by radiometric Hot-SpotSM Kinase assay relative to control"}}}
{"smiles": "CC[C@H](Nc1ncnc2[nH]cnc12)c1nc2cccc(F)c2c(=O)n1-c1ccccc1", "values": [{"measurement": "Activity", "setting": "[1]", "value": 83.8, "unit": "%"}, {"measurement": "Activity", "setting": "[2]", "value": 99.2, "unit": "%"}, {"measurement": "Activity", "setting": "[3]", "value": 93, "unit": "%"}, {"measurement": "Activity", "setting": "[4]", "value": 94, "unit": "%"}, {"measurement": "Activity", "setting": "[5]", "value": 102, "unit": "%"}, {"measurement": "Activity", "setting": "[6]", "value": 93.4, "unit": "%"}]}
{"smiles": "CC(C)Oc1ccc(-c2nn([C@@H](C)c3oc4ccc(F)cc4c(=O)c3-c3cccc(F)c3)c3ncnc(N)c23)cc1F", "note": "[UMBRALISIB]", "values": [{"measurement": "Activity", "setting": "[1]", "value": 83.1, "unit": "%"}, {"measurement": "Activity", "setting": "[2]", "value": 96.2, "unit": "%"}, {"measurement": "Activity", "setting": "[3]", "value": 97.1, "unit": "%"}, {"measurement": "Activity", "setting": "[4]", "value": 95.5, "unit": "%"}, {"measurement": "Activity", "setting": "[5]", "value": 99.8, "unit": "%"}, {"measurement": "Activity", "setting": "[6]", "value": 92.9, "unit": "%"}]}
{"smiles": "C[C@H](Nc1ncnc2nc[nH]c12)c1cc2cccc(Cl)c2c(=O)n1-c1ccccc1", "values": [{"measurement": "Activity", "setting": "[1]", "value": 88.6, "unit": "%"}, {"measurement": "Activity", "setting": "[2]", "value": 99.8, "unit": "%"}, {"measurement": "Activity", "setting": "[3]", "value": 97.1, "unit": "%"}, {"measurement": "Activity", "setting": "[4]", "value": 93.6, "unit": "%"}, {"measurement": "Activity", "setting": "[5]", "value": 98.6, "unit": "%"}, {"measurement": "Activity", "setting": "[6]", "value": 93.9, "unit": "%"}]}
